Several values for one entry are separate records, joined by “and”; a condition that tells them apart may be missing. Identical values can stand only once.
Experiments:
Type in all cases: biochemical
[1] = biological target: T1, E. coli gyrase GyrA^S83L (Escherichia coli, UniProt P0AES4+P0AES6, S83L); assay: DNA gyrase cleavage assay (CC50, % cleaved DNA); settings: for % maximal cleavage: GyrAS83L, average of 3 independent assays; for EC50: GyrA^S83L, mean ± s.d. of triplicate
T1 construct: alternative cryo-EM approach involving full-length E. coli gyrase; 10-His (cleaved yes); Twin-Strep (cleaved yes); made in house
Experimental: (§1) For DNA gyrase supercoiling assays to characterize gyrase mutants, 15 µl reactions were set up containing 250 ng of relaxed DNA, E. coli gyrase supercoiling buffer (35 mM Tris–Cl pH 7.5, 24 mM KCl, 4 mM MgCl2, 2 mM DTT, 1.8 mM spermidine, 1 mM ATP, 6.0% (w/v) glycerol, and 0.1 mg ml^−1 BSA), gyrase subunits and inhibitors. Concentrations of enzyme and inhibitor are stated in the figure legends. Inhibitors were diluted in the following way to reduce the chance of precipitation: stock compound in 100% DMSO was diluted to 5 mM in 100% DMSO. This compound solution was diluted to 1 mM by stepwise addition of 1 µl of 50% DMSO with thorough mixing via pipetting after each addition. All subsequent dilutions up to 100 µM were performed in the same way using H2O. After this point, compounds were stable and could be diluted in the normal way. Reactions were incubated at 37 °C for 30 min before stopping with 15 µl chloroform:isoamyl alcohol (24:1 v/v) and 15 µl of STEB (40% (w/v) sucrose, 100 mM Tris–Cl pH 8, 10 mM EDTA, 0.5 mg ml^−1 bromophenol blue).
(§2) Cleavage assays were set up in the same way as supercoiling assays with some modifications. The concentration of enzyme was increased 4-fold relative to the supercoiling assay and reactions were incubated for 1 h before addition of 0.2% SDS and proteinase K (0.2 mg ml^−1) and further incubation at 37 °C for 30 min to trap cleavage complexes. Reactions were stopped in the same way as supercoiling assays.
(§3) Results were visualized by agarose gel electrophoresis: 1% agarose Tris-acetate-EDTA (TAE) gels were run without ethidium bromide (supercoiling) or with 10 µg ml^−1 ethidium bromide (cleavage) at 8 V cm^−1.
(§4) DNA cleavage gels were analysed using densitometry (ImageJ). Experiments were carried out in triplicate and expressed as mean ± s.d. Curves were fitted using OriginPro 2021 (Origin Lab) according to a modified Hill equation:1 y=cI+(cF−cI)[…]/(k^n+x^n) where y is the percentage of cleaved DNA, cI is the initial cleavage, cF is the final cleavage, k is the CC50 (the concentration of inhibitor that results in cleavage of 50% of DNA), n is a slope factor and x is the inhibitor concentration.

[2] = biological target: T2, E. coli gyrase GyrB^K447W (Escherichia coli, UniProt P0AES4+P0AES6, K447W); assay: DNA gyrase cleavage assay (CC50, % cleaved DNA); settings: for % maximal cleavage: GyrBK447W, average of 3 independent assays
T2 construct: alternative cryo-EM approach involving full-length E. coli gyrase; 10-His (cleaved yes); Twin-Strep (cleaved yes); made in house
Experimental: as §1, §2, §3, §4

[3] = biological target: T3, E. coli gyrase GyrA^V70A (Escherichia coli, UniProt P0AES4+P0AES6, V70A); assay: DNA gyrase cleavage assay (CC50, % cleaved DNA); settings: for % maximal cleavage: GyrAV70A, average of 3 independent assays; for EC50: GyrA^V70A, mean ± s.d. of triplicate
T3 construct: alternative cryo-EM approach involving full-length E. coli gyrase; 10-His (cleaved yes); Twin-Strep (cleaved yes); made in house
Experimental: as §1, §2, §3, §4

[4] = biological target: T4, E. coli gyrase GyrA^A67Q (Escherichia coli, UniProt P0AES4+P0AES6, A67Q); assay: DNA gyrase cleavage assay (CC50, % cleaved DNA)
T4 construct: alternative cryo-EM approach involving full-length E. coli gyrase; 10-His (cleaved yes); Twin-Strep (cleaved yes); made in house
Experimental: as §1, §2, §3, §4

[5] = biological target: E. coli Topo IV (Escherichia coli, UniProt P0AFI2+P20083); assay: E. coli Topo IV relaxation assay; settings: tested 0.1, 1, 10, 100 µM
Sequence of E. coli Topo IV (P0AFI2 whole entry): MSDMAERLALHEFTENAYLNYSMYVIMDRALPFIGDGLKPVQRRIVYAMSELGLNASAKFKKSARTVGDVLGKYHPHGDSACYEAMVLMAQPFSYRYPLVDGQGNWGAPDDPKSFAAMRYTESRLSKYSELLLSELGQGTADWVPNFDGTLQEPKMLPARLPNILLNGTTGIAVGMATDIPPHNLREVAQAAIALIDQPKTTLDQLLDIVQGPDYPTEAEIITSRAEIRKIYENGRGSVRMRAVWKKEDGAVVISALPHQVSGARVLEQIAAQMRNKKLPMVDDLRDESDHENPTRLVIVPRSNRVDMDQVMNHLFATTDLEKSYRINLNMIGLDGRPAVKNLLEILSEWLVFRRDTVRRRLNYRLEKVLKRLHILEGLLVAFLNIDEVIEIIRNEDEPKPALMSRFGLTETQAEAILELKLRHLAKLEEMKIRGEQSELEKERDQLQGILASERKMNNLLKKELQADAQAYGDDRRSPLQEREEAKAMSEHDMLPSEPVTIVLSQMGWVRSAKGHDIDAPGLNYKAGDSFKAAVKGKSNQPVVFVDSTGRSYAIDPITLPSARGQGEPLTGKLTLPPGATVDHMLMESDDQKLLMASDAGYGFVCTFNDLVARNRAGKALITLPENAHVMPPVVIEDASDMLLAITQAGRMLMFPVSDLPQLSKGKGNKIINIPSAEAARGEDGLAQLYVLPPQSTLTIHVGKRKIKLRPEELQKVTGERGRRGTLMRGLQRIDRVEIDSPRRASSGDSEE
Sequence of E. coli Topo IV (P20083 whole entry): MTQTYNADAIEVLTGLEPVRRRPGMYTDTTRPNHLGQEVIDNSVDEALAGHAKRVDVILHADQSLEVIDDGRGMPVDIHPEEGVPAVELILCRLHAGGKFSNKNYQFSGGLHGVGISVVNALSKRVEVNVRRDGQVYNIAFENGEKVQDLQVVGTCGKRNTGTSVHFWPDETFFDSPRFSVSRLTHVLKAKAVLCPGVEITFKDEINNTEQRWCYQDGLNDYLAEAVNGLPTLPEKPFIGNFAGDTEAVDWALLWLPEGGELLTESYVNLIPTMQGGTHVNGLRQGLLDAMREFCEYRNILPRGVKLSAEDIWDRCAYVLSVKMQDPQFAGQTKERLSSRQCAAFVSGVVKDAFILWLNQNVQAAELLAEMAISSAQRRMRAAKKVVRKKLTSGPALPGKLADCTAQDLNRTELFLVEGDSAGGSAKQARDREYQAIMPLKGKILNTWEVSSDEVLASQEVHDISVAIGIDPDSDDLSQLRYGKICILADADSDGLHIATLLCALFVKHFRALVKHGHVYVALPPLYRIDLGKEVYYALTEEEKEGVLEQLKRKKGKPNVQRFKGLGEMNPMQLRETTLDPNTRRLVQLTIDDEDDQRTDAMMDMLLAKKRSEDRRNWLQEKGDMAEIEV
Experimental: E. coli Topo IV relaxation assays were set up in the same way as supercoiling assays with some modifications. The substrate was negatively supercoiled DNA, E. coli Topo IV relaxation buffer (50 mM K-HEPES pH 7.6, 100 mM potassium glutamate, 10 mM magnesium acetate, 10 mM DTT, 1 mM ATP and 0.05 mg ml^−1 BSA) and reactions were incubated for 1 h. Reactions were stopped in the same way as supercoiling assays.
as §3
Supplementary Figure 11. Activity of albicidin and Albi-1/2/3 on E. coli topoisomerase IV. a. Plasmid relaxation activity of E. coli topo IV in the presence of albicidin, Albi-1, Albi-2 and Albi-3. First lane: negatively supercoiled pBR322; second lane: innate relaxation activity of E. coli topo IV (12.5 nM); third lane: effect of 20 µM CFX; subsequent lanes: effect of increasing compound concentration (0.1, 1, 10, 100 […]
higher concentration. b. Cleavage activity of E. coli topo IV in the presence of albicidin, Albi-1, Albi-2 and Albi-3. First lane: negatively supercoiled pBR322; second lane: innate cleavage activity of E. coli topo IV (15 nM); third lane: effect of 20 µM CFX; subsequent lanes: effect of increasing compound concentration (0.1, 1, 10, 100 µM). […]
concentration. All experiments were carried out in triplicates and representative gels […]
(1 picture or pasted object on this page, not shown here)

[6] = biological target: T5, E. coli gyrase GyrA^M120A (Escherichia coli, UniProt P0AES4+P0AES6, M120A); assay: DNA gyrase cleavage assay (CC50, % cleaved DNA)
T5 construct: alternative cryo-EM approach involving full-length E. coli gyrase; 10-His (cleaved yes); Twin-Strep (cleaved yes); made in house
Experimental: as §1, §2, §3, §4

COc1c(NC(=O)c2ccc(NC(=O)c3ccc(NC(=O)[C@H](Cc4c[nH]nn4)NC(=O)c4ccc(NC(=O)c5ccc6nc(C)ccc6c5)cc4)cn3)c(OC)c2O)ccc(C(=O)O)c1O [Albi-3]
% maximal cleavage [1]: 85±7% | EC50 [1]: 16 ± 4 nM | % maximal cleavage [2]: 69±2% and 69% | % maximal cleavage [3]: 63±2% | EC50 [3]: 36 ± 8.6 nM | % maximal cleavage ([4]; GyrAA67Q, average of 3 independent assays): 78±6% | EC50 ([4]; GyrA^A67Q, mean ± s.d. of triplicate): 328 ± 19 nM | concentration required for full inhibition of Topo IV relaxation activity [5]: 10 µM

COc1c(NC(=O)c2ccc(NC(=O)c3ccc(NC(=O)[C@H](Cc4c[nH]nn4)NC(=O)c4ccc(NC(=O)c5ccc6cc(O)ccc6c5)cc4)cn3)c(OCCN)c2O)ccc(C(=O)O)c1O [Albi-2]
% maximal cleavage [1]: 72±7% | EC50 [1]: 208 ± 34 nM | % maximal cleavage ([6]; GyrAM120A, average of 3 independent assays): 59±17% | EC50 ([6]; GyrA^M120A, mean ± s.d. of triplicate): 160 ± 15 nM | % maximal cleavage [2]: 59±6% | EC50 ([2]; GyrB^K447W, mean ± s.d. of triplicate): 251 ± 40 nM | % maximal cleavage [3]: 58±2% | EC50 [3]: 189 ± 49 nM | concentration required for full inhibition of Topo IV relaxation activity [5]: 100 µM
